# Test results from US4987129A, “Cephalosporin derivatives” (priority 1987, dated 1991).
# Counter-ions that a name gives are not always drawn. Like-named read-outs stand apart in the source and are kept apart here.
# Tests used:
# [1] = test system: Citrobacter freundii 1R527; assay: minimum inhibitory concentration (MIC); assay type: cell-based
# Experimental: (§1) The minimum inhibitory concentration (MIC) of the compounds obtained in the above Examples were measured according to the standard method of Japan Society of Chemotherapy.
# [2] = test system: Pseudomonas aeruginosa 4au542; assay: minimum inhibitory concentration (MIC); assay type: cell-based; details: Tables 2A, 2B
# Experimental: as §1
# [3] = test system: Citrobacter freundii GN7391; assay: minimum inhibitory concentration (MIC); assay type: cell-based
# Experimental: as §1
# [4] = test system: Enterobacter cloacae IV25; assay: minimum inhibitory concentration (MIC); assay type: cell-based
# Experimental: as §1
# [5] = test system: Pseudomonas aeruginosa GN10362; assay: minimum inhibitory concentration (MIC); assay type: cell-based; details: Tables 2A, 2B
# Experimental: as §1
# [6] = test system: Enterobacter cloacae GN7471; assay: minimum inhibitory concentration (MIC); assay type: cell-based
# Experimental: as §1
# [7] = test system: Citrobacter freundii 1U592; assay: minimum inhibitory concentration (MIC); assay type: cell-based
# Experimental: as §1
# Proteus vulgris GN7919 = assay: minimum inhibitory concentration (MIC); assay type: cell-based
# Experimental: as §1
# [8] = test system: Pseudomonas aeruginosa 5D58-1; assay: minimum inhibitory concentration (MIC); assay type: cell-based; details: 5D581, Tables 2A, 2B
# Experimental: as §1
# [9] = test system: Citrobacter freundii 1R526; assay: minimum inhibitory concentration (MIC); assay type: cell-based
# Experimental: as §1
# [10] = test system: Citrobacter freundii 1R524; assay: minimum inhibitory concentration (MIC); assay type: cell-based
# Experimental: as §1
# [11] = test system: Citrobacter freundii 5D60-1; assay: minimum inhibitory concentration (MIC); assay type: cell-based
# Experimental: as §1
# [12] = test system: Citrobacter freundii 1U589; assay: minimum inhibitory concentration (MIC); assay type: cell-based
# Experimental: as §1
# [13] = test system: Citrobacter freundii GM7391; assay: minimum inhibitory concentration (MIC); assay type: cell-based
# Experimental: as §1
# Escherichia coli ML4704 = assay: minimum inhibitory concentration (MIC); assay type: cell-based; details: Escherichia coli ML4704; Tables 2A, 2B; read-out: MIC
# Experimental: as §1
# [14] = test system: Klebsiella pneumoniae 4at521; assay: minimum inhibitory concentration (MIC); assay type: cell-based; details: Tables 2A, 2B
# Experimental: as §1
# [15] = test system: Pseudomonas maltophilia OF247; assay: minimum inhibitory concentration (MIC); assay type: cell-based; details: Stenotrophomonas maltophilia, Tables 2A, 2B
# Experimental: as §1
# [16] = test system: Serratia marcescens GN10857; assay: minimum inhibitory concentration (MIC); assay type: cell-based; details: Tables 2A, 2B
# Experimental: as §1
# Escherichia coli GN5482 = assay: minimum inhibitory concentration (MIC); assay type: cell-based; details: Tables 2A, 2B
# Experimental: as §1
# [17] = test system: Pseudomonas cepacia OF189; assay: minimum inhibitory concentration (MIC); assay type: cell-based; details: Burkholderia cepacia, Tables 2A, 2B
# Experimental: as §1
# [18] = test system: Enterobacter cloacae 908RN; assay: minimum inhibitory concentration (MIC); assay type: cell-based; details: Enterobacter cloacae 908RN
# Experimental: as §1
# [19] = test system: Citrobacter freundii 1R523; assay: minimum inhibitory concentration (MIC); assay type: cell-based
# Experimental: as §1
# [20] = test system: Staphylococcus aureus Smith; assay: minimum inhibitory concentration (MIC), standard method of Japan Society of Chemotherapy; assay type: cell-based; details: Tables 2A, 2B
# Experimental: as §1
# [21] = among existing cephalosporins; known; cited from earlier work
# in vivo = assay: in vivo; set-up: species or system cynomolgus monkeys; details: cynomolgus monkey, 20 mg/kg
# Experimental: 20 mg/kg of compound obtained in the above Example 18 was administered parenterally to cynomolgus monkeys and the half-life in blood was measured.
# The concentration of the compound was measured according to HPLC method. Novapack C18 or Microbondapack C18 (both trade name, produced by Waters Co.) was used for analysis. Further, cefpiramide was used as a control drug.
# [22] = test system: Enterobacter cloacae 5D52-2; assay: minimum inhibitory concentration (MIC); assay type: cell-based; details: 5D522
# Experimental: as §1
# [23] = test system: Enterobacter cloacae 5D83-2; assay: minimum inhibitory concentration (MIC); assay type: cell-based; details: 5D832
# Experimental: as §1
# [24] = test system: Staphylococcus aureus IAA498; assay: minimum inhibitory concentration (MIC); assay type: cell-based; details: Tables 2A, 2B
# Experimental: as §1
# [25] = test system: Enterobacter cloacae IY247; assay: minimum inhibitory concentration (MIC); assay type: cell-based
# Experimental: as §1
structure (smiles),measurement,setting,value
"CC(C)(O/N=C(\C(=O)N[C@@H]1C(=O)N2C(C(=O)[O-])=C(C[n+]3ccccc3)CS[C@H]12)c1csc(N)n1)C(=O)O [CAZ, ceftazidime, reference compound]",MIC,[1],25 µg/mL
same,MIC,[2],3.13 µg/mL
same,MIC,"[3]; Citrobacter freundii, GN7391",> 100 µg/mL
same,MIC,[4],50 µg/mL
same,MIC,[5],1.56 µg/mL
same,MIC,"[6]; Enterobacter cloacae, GN7471",3.13 µg/mL
same,MIC,[7],100 µg/mL
same,MIC,Proteus vulgris GN7919,1.56 µg/mL
same,MIC,[8],1.56 µg/mL
same,MIC,[9],25 µg/mL
same,MIC,[10],25 µg/mL
same,MIC,[11]; 5D601,> 100 µg/mL
same,MIC,[12],100 µg/mL
same,MIC,[13],> 100 µg/mL
same,MIC,Escherichia coli ML4704,0.05 µg/mL
same,MIC,[14],0.1 µg/mL
same,MIC,[15],3.13 µg/mL
same,MIC,[16],3.13 µg/mL
same,MIC,Escherichia coli GN5482,1.56 µg/mL
same,MIC,[17],6.25 µg/mL
same,MIC,"[18]; Table 3, clinical isolates resistant to ceftazidime",> 100 µg/mL
same,MIC,"[18]; Tables 2A, 2B",100 µg/mL
same,MIC,[19],25 µg/mL
same,MIC,[20],6.25 µg/mL
"Cc1cc(O)c(C(=O)N[C@@H](C(=O)N[C@@H]2C(=O)N3C(C(=O)O)=C(CSc4nnnn4C)CS[C@H]23)c2ccc(O)cc2)cn1 [Cefpiramide, cefpiramide, reference compound]",half-life in blood,[21],long half-life in blood
same,half-life,in vivo,2.5 h
"Cc1cc(SCC2=C(C(=O)O)N3C(=O)C(NC(=O)C(=NOC(C)(C)C(=O)NNC(=O)c4ccc(O)c(O)c4)c4csc(N)n4)C3SC2)n2nc(CO)nc2n1 (stereo not shown) [Example 18, 7-{2-[2-amino-1,3-thiazol-4-yl]-2-[1-(3-(3,4-dihydroxybenzoyl)carbazoyl)-1-methylethoxyimino]acetamide}-3-[(2-hydroxymethyl-5-methyl-s-triazolo[1,5-a]pyrimidin-7-yl)thiomethyl]-3-cephem-4-carboxylic acid.sodium salt]",MIC,[1]; read-out: MIC,0.2 µg/mL
same,MIC,[2],0.2 µg/mL
same,MIC,"[3]; Citrobacter freundii GN7391, Tables 2A, 2B, read-out: MIC",12.5 µg/mL
same,MIC,[4]; read-out: MIC,1.56 µg/mL
same,MIC,[5],0.05 µg/mL
same,MIC,"[6]; Enterobacter cloacae GN7471, Tables 2A, 2B, read-out: MIC",6.25 µg/mL
same,MIC,[7]; read-out: MIC,25 µg/mL
same,MIC,"Proteus vulgris GN7919; Proteus vulgris GN7919, Tables 2A, 2B, read-out: MIC",1.56 µg/mL
same,MIC,[8],0.05 µg/mL
same,MIC,[9]; read-out: MIC,0.39 µg/mL
same,MIC,[10]; read-out: MIC,0.39 µg/mL
same,MIC,[22],0.39 µg/mL
same,MIC,[23],0.78 µg/mL
same,MIC,"[11]; 5D601, read-out: MIC",1.56 µg/mL
same,MIC,[12]; read-out: MIC,1.56 µg/mL
same,MIC,[13]; read-out: MIC,6.25 µg/mL
same,MIC,Escherichia coli ML4704,0.012 µg/mL
same,MIC,[14],0.012 µg/mL
same,MIC,[15],0.39 µg/mL
same,MIC,[16],0.78 µg/mL
same,MIC,Escherichia coli GN5482,0.025 µg/mL
same,MIC,[17],0.025 µg/mL
same,MIC,"[18]; Table 3, clinical isolates resistant to ceftazidime, read-out: MIC",12.5 µg/mL
same,MIC,"[18]; Tables 2A, 2B, read-out: MIC",6.25 µg/mL
same,MIC,[24],6.25 µg/mL
same,MIC,[25],6.25 µg/mL
same,MIC,[19]; read-out: MIC,0.78 µg/mL
same,half-life,in vivo,2.6 h
same,MIC,[20],1.56 µg/mL
